From patent publication US20230226018A1, “APPLICATION OF COMPOUND USING INTRA-CYCLIC PEROXO-BRIDGED SESQUITERPENES AS PARENT NUCLEUS IN METABOLISM-RELATED FATTY LIVER DISEASES” (SHANGHAI JIAO TONG UNIVERSITY, priority 2021, published 2023)

How the values were obtained:
[1] = system: C57 mice fed with 10% lard and 5% fructose; test: Liver pathology (HE, Oil red O staining, SAF scoring) in mice on high-fat and high-sugar diet; format: in vivo; details: vs high-fat group
Description: (§1) C57 mice were selected and fed with feedstuffs that were added with 10% lard and 5% fructose. After 12 weeks, the mice suffered from liver metabolism disruption, generated insulin resistance, and were stuck in mitochondrial dysfunction in liver cells, thus resulting in a decrease in fatty acid β-oxidation capacity and fat accumulation in the liver, and inflammation and fibrosis were produced. Artemisinin was given at a dosage of 100 mg/kg from the 13th week as a treatment for 12 weeks. At the end of the experiment, the mice were dissected to obtain livers. A part of the livers was subjected to HE staining and Oli red O staining to quantify the liver lipids and conduct a pathological scoring of liver steatosis of the mice based on the steatosis activity fibrosis (SAF) scoring system.

[2] = system: C57 mice fed with 10% lard and 5% fructose; test: Expression of lipid metabolism-related genes in liver tissue of mice on high-fat and high-sugar diet; format: in vivo; details: artemisinin 100 mg/kg for 12 weeks, FIGS. 10A-10I
Description: as §1, with “system. […] A part of the livers of the mice in each group mentioned above was taken, RNA and protein were extracted, and the study of the expression of related genes and proteins was conducted to detect the expression levels of lipid metabolism-related genes in liver tissue.” for “system.”

[3] = system: C57 mice fed with 10% lard and 5% fructose; test: Serum enzyme detection in mice on high-fat and high-sugar diet; format: in vivo; details: artemisinin 100 mg/kg for 12 weeks, vs high-fat diet
Description: as §1, with “system. […] The serum of each group of mice mentioned above was taken and subjected to serum enzyme detection.” for “system.”

[4] = system: C57 mice fed with 10% lard and 5% fructose; test: Expression of autophagy-related proteins (TOR, LC3) in liver of mice on high-fat and high-sugar diet; format: in vivo; details: artemisinin 100 mg/kg for 12 weeks, FIGS. 11A-11G
Description: as §1
A part of the livers of the mice in each group mentioned above was taken, RNA and protein were extracted, and the study of the expression of related genes and proteins was conducted to detect the expression levels of lipid metabolism-related genes in liver tissue.
Target of rapamycin (TOR) is a key protein in the control of autophagy, which can sense various change signals of cells and strengthen or reduce the occurrence level of autophagy.

HepG2 liver cancer cells [5] = test: Lipid accumulation (triglyceride content, Nile red lipid droplets) in FFA-treated HepG2 liver cancer cells; format: cell-based, human; details: 1 mM/L FFA, 5 μM/L artesunate, 24 h, vs model group
HepG2 liver cancer cells [6] = test: qRT-PCR expression of CIDE, AMPK pathway and PPAR pathway genes in FFA-treated HepG2 cells; format: cell-based, human; details: 1 mM/L FFA, 5 μM/L artesunate, 24 h
Description: Experimental methods: HepG-2 liver cancer cells with passage times less than 20 times were selected and inoculated into a 12-well plate at a density of 3×10^5 cells/mL. Drug treatment was performed after inoculating for 24 h, and the cells were divided into 3 groups with 4 wells in each group. A complete medium containing 1% bovine serum albumin (BSA) was used as the control group. A complete medium containing 1% BSA and 1 mM/L FFA was used as the high-fat model group. A complete medium containing 1% BSA, 1 mM/L FFA, and 5 μM/L, artesunate was used as the artesunate group. After being treated for 24 h, the cells were collected, and RNA was extracted and reverse-transcribed into cDNA. Quantitative real-time PCR (qRT-PCR) was used to detect the expression of CIDE series genes. AMPK signaling pathway-related genes, and PPAR signaling pathway-related genes in the three groups of cells.

[7] = vs model group, p<0.001, FIG. 7

SMILES	score of lobular inflammation (SAF scoring system) ([1]; artemisinin 100 mg/kg for 12 weeks, FIG. 9C)	score of ballooning of liver cells (SAF scoring system) ([1]; artemisinin 100 mg/kg for 12 weeks, FIG. 9D)	liver steatosis (fat blebs, Oil red O staining areas) ([1]; artemisinin 100 mg/kg from the 13th week for 12 weeks, FIG. 8)	upstream gene expression levels of genes related to lipid synthesis in liver [2]	ALT level in the serum ([3]; FIG. 9E)	AST level in the serum ([3]; FIG. 9F)	mitochondrial dysfunction and autophagy (mitophagy) level in liver [4]	content of triglyceride (TG) in HepG2 liver cancer cells (HepG2 liver cancer cells [5]; FIG. 1)	number of large lipid droplets (Nile red staining) (HepG2 liver cancer cells [5]; FIGS. 2A-2B)	expression of SREBP1c-ACC/SCD1/FAS genes related to intracellular fatty acid synthesis (HepG2 liver cancer cells [6]; FIG. 5)	mRNA level of PPARct. (HepG2 liver cancer cells [6]; [7])	mRNA level of PPARy (HepG2 liver cancer cells [6]; [7])	mRNA level of AMPKα (PRKAA1) (HepG2 liver cancer cells [6]; vs model group, p<0.01, FIG. 4)	mRNA level of carnitine palmitoyl transferase 1 (CPT-1) (HepG2 liver cancer cells [6]; vs model group, p<0.01, FIG. 6)	mRNA expression of Cide-a gene (HepG2 liver cancer cells [6]; vs model group, FIG. 3)	mRNA expression of Cide-b gene (HepG2 liver cancer cells [6]; vs model group, FIG. 3)
C[C@@H]1CC[C@H]2[C@@H](C)C(=O)O[C@@H]3O[C@@]4(C)CC[C@@H]1[C@]32OO4 [artemisinin]	significantly reduced	significantly reduced	significantly improve liver steatosis	inhibited	significantly reduce the elevation	significantly reduce the elevation	effectively resist the mitochondrial dysfunction and the decrease in the autophagy level									
C[C@H]1[C@H](OC(=O)CCC(=O)O)O[C@@H]2O[C@@]3(C)CC[C@H]4[C@H](C)CC[C@@H]1[C@@]24OO3 [artesunate]								significantly decreased	decreased	reduce the expression	significantly up-regulated	significantly up-regulated	significantly up-regulated	significantly up-regulated	significantly lower	significantly lower
